“And” between values parts separate entries of the source, which are not always exact repeats. Equal entries are not always repeated.
Assays:
[1] = target: T1, NLuc-PRMT5 co-expressed with WDR77 in HCT116 MTAP wild-type cells (Homo sapiens, UniProt O14744); assay: Live-cell NanoBRET target engagement in HCT116 MTAP wild-type cells (NLuc-PRMT5 + WDR77); type: cell-based; details: for BRET, CBH-002 + DMSO: Fig 5A, Log([CBH-002]); for normalized BRET, CBH-002 + DMSO (Figure S6C) / normalized BRET, CBH-002 + GSK3326595 (Figure S6C): log([CBH-002])
T1 construct: Horizon Discovery (cells) #PAR-034 and #R02-033 (cells); host or cells: HCT116 MTAP wild-type / MTAP-/-
Procedure: HEK293 cells (ATCC) were cultured in DMEM (Thermo Fisher) + 10% (v/v) FBS (Seredigm), and HCT116 cells (Horizon Discovery, #PAR-034 and #R02-033) were cultured in McCoy’s 5A (Thermo Fisher) + 10% FBS, with incubation in a humidified, 37 °C/5% CO2 incubator. Cells were split 1–3 days prior to performing experiments and used at roughly 80% confluency. […] Cells were transfected according to the manufacturer’s protocol using FuGENE HD (Promega). NanoLuc fusion DNA was diluted into Transfection Carrier DNA (Promega) in Opti-MEM at a ratio of 1:9 (mass/mass), and FuGENE HD was added at a ratio of 1:3 (μg DNA:μL lipid). […] Formed complexes were combined with cells resuspended to a density of 2 × 10^5 cells/mL in Opti-MEM + 1% FBS at a ratio of 1:20 (vol:vol). […] Cells were seeded at a density of 2 × 10^5 cells/mL in Opti-MEM + 1% FBS in 100 μL (96-well). The BRET probe CBH-002 was prepared first as a 100× stock in 100% DMSO (Sigma) and then diluted to a 20× stock in NanoBRET Tracer Dilution buffer (Promega). Test compounds were prepared as 1000× stocks in 100% DMSO and diluted to 10× stocks in Opti-MEM to prepare working stocks. […] NanoBRET Complete 3x Substrate was prepared by combining Nano-Glo Substrate and Extracellular NanoLuc Inhibitor in Opti-MEM, according to the manufacturer’s protocol (Promega).
(§1) EC50 values were obtained by fitting the BRET probe and compound affinity curves to a sigmoidal four-parameter fit model in Graphpad Prism:1 Y=Ymin+Ymax−Ymin/1+10^LogEC50−Xh where h is the Hill Slope.
When normalized BRET was used, mBRET values were normalized using2 NormalizedBRET%=(Y−BRETmin)/BRETmax−BRETmin where y = mBRET in the presence of test compound and BRET probe, BRETmin = mBRET at the highest concentration (saturating) of test compound and BRET probe, and BRETmax = mBRET in the presence of vehicle (DMSO) and BRET probe.
Normalized concentration-response curves showing full competition were fit using a 2-parameter model:3 Y=100/1+10^LogEC50−Xh
In situations where only partial competition was observed, the normalized concentration-response curves were fit using Eq. 1 and where Ymin was constrained to >0.

[2] = target: T2, RIPK2 (Homo sapiens, UniProt O43353); assay: CBH-002 affinity curve, HEK293, RIPK2-NL fusion (cytosolic control); type: cell-based; set-up: BRET, CBH-002 + DMSO / BRET, CBH-002 + GSK3326595: unit not given here; details: for BRET, CBH-002 + DMSO / BRET, CBH-002 + GSK3326595: Figure S2E RIPK2-NL, log([CBH-002])
T2 construct: host or cells: HEK293
Procedure: HEK293 cells (ATCC) were cultured in DMEM (Thermo Fisher) + 10% (v/v) FBS (Seredigm), and HCT116 cells (Horizon Discovery, #PAR-034 and #R02-033) were cultured in McCoy’s 5A (Thermo Fisher) + 10% FBS, with incubation in a humidified, 37 °C/5% CO2 incubator. Cells were split 1–3 days prior to performing experiments and used at roughly 80% confluency. […] Cells were transfected according to the manufacturer’s protocol using FuGENE HD (Promega). NanoLuc fusion DNA was diluted into Transfection Carrier DNA (Promega) in Opti-MEM at a ratio of 1:9 (mass/mass), and FuGENE HD was added at a ratio of 1:3 (μg DNA:μL lipid). For experiments using WDR77, untagged WDR77 DNA (Promega) was used in place of Carrier DNA. Formed complexes were combined with cells resuspended to a density of 2 × 10^5 cells/mL in Opti-MEM + 1% FBS at a ratio of 1:20 (vol:vol). Cells were plated into a flask and incubated at 37 °C in a humidified 5% CO2 atmosphere for 18–24 h, before being lifted and seeded into 96-well non-binding surface-treated plates (Corning). Cells were seeded at a density of 2 × 10^5 cells/mL in Opti-MEM + 1% FBS in 100 μL (96-well). The BRET probe CBH-002 was prepared first as a 100× stock in 100% DMSO (Sigma) and then diluted to a 20× stock in NanoBRET Tracer Dilution buffer (Promega). Test compounds were prepared as 1000× stocks in 100% DMSO and diluted to 10× stocks in Opti-MEM to prepare working stocks. […] NanoBRET Complete 3x Substrate was prepared by combining Nano-Glo Substrate and Extracellular NanoLuc Inhibitor in Opti-MEM, according to the manufacturer’s protocol (Promega). NanoBRET Complete 3× Substrate was added to cells and plates were measured on either a PheraSTAR FSX equipped with 450 nm (donor) and 610 nm (acceptor) filters, or a GloMAX Discover equipped with 450/8 nm BP (donor) and 600 nm LP (acceptor) filters, using a 0.3 s integration time.
as §1

T2 sequence (O43353 whole entry, the tested form may be a part): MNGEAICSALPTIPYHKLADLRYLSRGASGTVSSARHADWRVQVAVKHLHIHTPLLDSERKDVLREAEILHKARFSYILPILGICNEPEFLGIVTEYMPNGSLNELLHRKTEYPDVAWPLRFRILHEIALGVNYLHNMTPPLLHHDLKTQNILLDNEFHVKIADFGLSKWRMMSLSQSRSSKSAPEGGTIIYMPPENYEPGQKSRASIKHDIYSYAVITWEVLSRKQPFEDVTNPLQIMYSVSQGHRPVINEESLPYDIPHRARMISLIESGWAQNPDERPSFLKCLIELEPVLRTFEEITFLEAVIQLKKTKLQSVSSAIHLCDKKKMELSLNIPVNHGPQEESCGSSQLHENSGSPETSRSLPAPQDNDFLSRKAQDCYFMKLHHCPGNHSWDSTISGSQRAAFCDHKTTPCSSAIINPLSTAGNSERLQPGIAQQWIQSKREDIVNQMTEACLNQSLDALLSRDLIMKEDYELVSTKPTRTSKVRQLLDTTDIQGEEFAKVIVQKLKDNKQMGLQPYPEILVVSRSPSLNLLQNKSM
T1 sequence (O14744 whole entry): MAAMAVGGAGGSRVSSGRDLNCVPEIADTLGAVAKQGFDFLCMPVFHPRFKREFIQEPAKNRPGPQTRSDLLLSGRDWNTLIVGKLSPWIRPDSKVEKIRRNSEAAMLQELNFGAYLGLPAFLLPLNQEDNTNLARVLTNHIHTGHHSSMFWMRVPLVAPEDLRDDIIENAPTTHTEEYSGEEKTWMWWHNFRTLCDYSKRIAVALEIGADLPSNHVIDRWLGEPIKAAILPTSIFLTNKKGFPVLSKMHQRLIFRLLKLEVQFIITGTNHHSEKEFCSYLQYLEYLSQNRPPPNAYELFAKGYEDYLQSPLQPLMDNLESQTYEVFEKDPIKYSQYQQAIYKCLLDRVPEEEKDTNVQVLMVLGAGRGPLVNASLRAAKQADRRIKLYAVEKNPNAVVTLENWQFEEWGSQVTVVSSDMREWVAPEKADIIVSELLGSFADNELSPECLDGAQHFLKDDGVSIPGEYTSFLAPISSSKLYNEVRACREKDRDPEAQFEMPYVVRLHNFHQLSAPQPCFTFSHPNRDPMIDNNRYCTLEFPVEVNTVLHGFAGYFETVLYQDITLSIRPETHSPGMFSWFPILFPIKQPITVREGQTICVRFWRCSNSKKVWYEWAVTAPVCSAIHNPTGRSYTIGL
T1 sequence (Q9BQA1 whole entry partner): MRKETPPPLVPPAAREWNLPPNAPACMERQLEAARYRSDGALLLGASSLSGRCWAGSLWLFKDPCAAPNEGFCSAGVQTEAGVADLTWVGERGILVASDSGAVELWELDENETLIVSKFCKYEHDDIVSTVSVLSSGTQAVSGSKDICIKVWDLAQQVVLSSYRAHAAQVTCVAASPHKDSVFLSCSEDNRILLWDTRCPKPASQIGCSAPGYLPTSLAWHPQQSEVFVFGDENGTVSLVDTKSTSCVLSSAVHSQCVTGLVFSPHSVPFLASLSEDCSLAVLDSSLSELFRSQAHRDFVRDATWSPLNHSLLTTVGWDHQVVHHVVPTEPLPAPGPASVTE

BRET, CBH-002 + DMSO ([1]; uM -0.60): 403 and 799.01 and 758.47 | BRET, CBH-002 + DMSO ([1]; uM -0.90): 393 and 766.11 and 738.99 | BRET, CBH-002 + DMSO ([1]; uM -1.20): 378 and 710.21 and 697.93 | BRET, CBH-002 + DMSO ([1]; uM -1.51): 362 and 618.54 and 616.68 | BRET, CBH-002 + DMSO ([1]; uM -1.81): 323 | BRET, CBH-002 + DMSO ([1]; uM -2.71): 68.8 and 69.23 and 65.71 | EC50 ([1]; HCT116 wild-type cells, WDR77 co-expression, read-out: CBH-002 apparent affinity (EC50)): 0.012 µM | normalized BRET, CBH-002 + DMSO (Figure S6C) ([1]; uM = -0.60): 100 | normalized BRET, CBH-002 + GSK3326595 (Figure S6C) ([1]; uM = -0.60): 12.6717 and 16.8431 and 16.7636 | normalized BRET, CBH-002 + DMSO (Figure S6C) ([1]; uM = -0.90): 97.4927 and 95.8339 and 97.4011 | normalized BRET, CBH-002 + GSK3326595 (Figure S6C) ([1]; uM = -0.90): 9.237 and 13.3988 and 13.2855 | normalized BRET, CBH-002 + DMSO (Figure S6C) ([1]; uM = -1.20): 93.7318 and 88.7552 and 91.9231 | normalized BRET, CBH-002 + GSK3326595 (Figure S6C) ([1]; uM = -1.20): 5.8269 and 8.083 and 8.045 | normalized BRET, CBH-002 + DMSO (Figure S6C) ([1]; uM = -1.51): 89.7202 and 77.147 and 81.0831 | normalized BRET, CBH-002 + GSK3326595 (Figure S6C) ([1]; uM = -1.51): 3.295 and 4.174 and 4.336 | normalized BRET, CBH-002 + DMSO (Figure S6C) ([1]; uM = -1.81): 79.9418 and 55.2096 and 56.8522 | normalized BRET, CBH-002 + GSK3326595 (Figure S6C) ([1]; uM = -1.81): 1.59 and 1.874 and 2.064 | normalized BRET, CBH-002 + DMSO (Figure S6C) ([1]; uM = -2.11): 57.6271 and 32.8998 and 32.0743 | normalized BRET, CBH-002 + GSK3326595 (Figure S6C) ([1]; uM = -2.11): 0.7121 and 0.8016 and 0.8965 | normalized BRET, CBH-002 + DMSO (Figure S6C) ([1]; uM = -2.41): 31.5515 and 15.8288 and 15.9084 | normalized BRET, CBH-002 + GSK3326595 (Figure S6C) ([1]; uM = -2.41): 0.2206 and 0.2381 and 0.3149 | normalized BRET, CBH-002 + GSK3326595 (Figure S6C) ([1]; uM = -2.71): 0 | BRET, CBH-002 + DMSO ([2]; uM 0.04576): 1.852 and 1.939 and 2.142 | BRET, CBH-002 + GSK3326595 ([2]; uM 0.04576): 1.842 and 1.813 and 1.9392 | BRET, CBH-002 + DMSO ([2]; uM 0.52288): 5.1141 and 4.646 and 5.258 | BRET, CBH-002 + GSK3326595 ([2]; uM 0.52288): 4.515 and 4.266 and 4.4734 | BRET, CBH-002 + DMSO ([2]; uM 1): 11.7522 and 11.9286 and 12.3306 | BRET, CBH-002 + GSK3326595 ([2]; uM 1): 11.5342 and 11.3369 and 11.377 | BRET, CBH-002 + DMSO ([2]; uM -0.43136): 0.8543 and 0.8172 and 0.8282 | BRET, CBH-002 + GSK3326595 ([2]; uM -0.43136): 0.5912 and 0.5546 and 0.9723 | CBH-002 engagement at RIPK2 ([2]; HEK293, RIPK2-NL): did not show engagement
Compound: O=C(CCc1ccc2n1[B-](F)(F)[N+]1=C(c3ccc[nH]3)C=CC1=C2)NCCCCC(=O)N1CCC(Nc2cc(C(=O)NC[C@H](O)CN3CCc4ccccc4C3)ncn2)CC1 [CBH-002]

— publication PMC12675575, “A BRET biosensor for measuring uncompetitive engagement of PRMT5 complexes in cells” (Nature Communications, 2025)
